Values of other authors, collected in paper PMC5845353, “The selective cathepsin K inhibitor MIV-711 attenuates joint pathology in experimental animal models of osteoarthritis” (Journal of Translational Medicine, 2018).

Target: rabbit cathepsin K enzyme
Set-up: method as in PMID 29743078
Details: read-out: Ki against rabbit cathepsin K enzyme; cited from earlier work

Structure (SMILES): C#C[C@@H]1CN(C(=O)[C@H](CC(C)C)NC(=O)c2ccc(-c3nc(N4CCN(C)CC4)sc3F)cc2)[C@@H]2C(=O)CO[C@H]12 [MIV-711]
- Ki: 3.3 nM
